Test results from article PMC5934670 (Nucleic Acids Research, 2018).

Key:
KdpE = molecular target: T1, KdpE (Escherichia coli, UniProt P21866); test: Genomic SELEX-chip, rise of specific DNA binding; details: phosphodonor, no KdpD; phosphorylation itself not measured; covalent
T1 sequence (P21866 1-225): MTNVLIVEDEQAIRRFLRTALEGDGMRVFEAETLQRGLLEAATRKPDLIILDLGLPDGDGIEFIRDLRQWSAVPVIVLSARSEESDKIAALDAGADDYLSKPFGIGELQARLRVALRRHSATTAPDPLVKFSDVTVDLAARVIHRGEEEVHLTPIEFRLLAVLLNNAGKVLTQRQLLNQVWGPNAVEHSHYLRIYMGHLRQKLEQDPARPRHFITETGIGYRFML

TorR = molecular target: T2, TorR (Escherichia coli, UniProt P38684); test: Genomic SELEX-chip, rise of specific DNA binding; details: phosphodonor, no TorS; phosphorylation itself not measured; covalent
T2 sequence (P38684 1-230): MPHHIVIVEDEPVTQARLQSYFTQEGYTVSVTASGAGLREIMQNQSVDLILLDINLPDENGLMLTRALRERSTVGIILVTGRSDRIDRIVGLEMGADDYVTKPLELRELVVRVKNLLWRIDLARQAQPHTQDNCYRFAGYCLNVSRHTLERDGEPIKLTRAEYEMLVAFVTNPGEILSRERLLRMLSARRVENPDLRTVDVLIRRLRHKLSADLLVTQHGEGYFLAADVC

LacI = LacI (Escherichia coli, UniProt P03023); test: Genomic SELEX-chip, loss of DNA binding; details: inducer; increasing IPTG; lac operator DNA
NanR = molecular target: T3, NanR (Escherichia coli, UniProt P0A8W0); test: Genomic SELEX-chip, change of DNA-binding specificity; details: effector; genomic DNA library
T3 sequence (P0A8W0 1-263): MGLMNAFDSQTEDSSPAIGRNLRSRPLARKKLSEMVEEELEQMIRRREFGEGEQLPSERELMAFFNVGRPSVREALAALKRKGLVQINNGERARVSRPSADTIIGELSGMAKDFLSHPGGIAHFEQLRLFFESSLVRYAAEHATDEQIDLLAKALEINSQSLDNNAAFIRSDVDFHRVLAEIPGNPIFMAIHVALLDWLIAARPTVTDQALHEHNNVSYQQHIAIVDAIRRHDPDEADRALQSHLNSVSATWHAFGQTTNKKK

Chain of LacI (P03023 whole entry): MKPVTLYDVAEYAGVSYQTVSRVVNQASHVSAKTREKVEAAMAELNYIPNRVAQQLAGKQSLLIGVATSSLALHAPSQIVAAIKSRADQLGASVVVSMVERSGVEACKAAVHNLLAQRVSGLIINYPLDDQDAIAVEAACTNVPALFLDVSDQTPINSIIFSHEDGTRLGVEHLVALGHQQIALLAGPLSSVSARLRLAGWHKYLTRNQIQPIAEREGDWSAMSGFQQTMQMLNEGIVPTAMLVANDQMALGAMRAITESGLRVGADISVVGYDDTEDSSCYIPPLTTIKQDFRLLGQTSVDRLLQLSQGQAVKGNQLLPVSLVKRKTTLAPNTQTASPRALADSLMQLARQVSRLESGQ

In the case of `CC(=O)OP(=O)(O)O` [AcP], the “Genomic SELEX-chip, rise of specific DNA binding” value (KdpE) is reported as “The binding affinity to this single target increased in the presence of AcP” and the “Genomic SELEX-chip, rise of specific DNA binding” value (TorR) is reported as “the level of TorR binding to this target was higher in the presence of AcP”.

With `CC(C)S[C@@H]1O[C@H](CO)[C@H](O)[C@H](O)[C@H]1O` [IPTG] the “Genomic SELEX-chip, loss of DNA binding” value (LacI) was “level of LacI binding at the lacZ promoter region decreased concomitant with the increased addition of IPTG”.

With `CC(=O)N[C@H]1[C@H]([C@H](O)[C@H](O)CO)OC(O)(C(=O)O)C[C@@H]1O` (stereo partly shown) [Neu5Ac] the “Genomic SELEX-chip, change of DNA-binding specificity” value (NanR) was “The binding of NanR to these non-specific sites disappeared in the presence of Neu5Ac”.
